Like-named read-outs stand apart in the source and are kept apart here.
What was measured:
spleen cells = assay: Spleen cell proliferation (Con A, LPS, tuberculin) from treated infected mice; assay type: in vivo
Procedure: Spleens from mice were harvested aseptically, homogenized in RPMI-1640 medium (Biolot, Russia) and filtered through two layers of sterile gauze. Erythrocytes were lysed in 0.83% percent ammonium chloride solution after centrifugation of the homogenate. Spleen cells were washed twice with RPMI-1640 with 2 mM L-glutamine and […] gentamycin (Sigma, St. Louis, Mo.), then counted using a Goriaev hemocytometer.
(§1) Spleen cells and thymic cells were isolated as described above. In vitro, thymic cells were diluted to 10^7/ml in RPMI-1640 with 2 mM L-glutamine, 80 ìg/ml gentamycin and 4% heat-inactivated fetal calf serum (Sigma, St. Louis, Mo.). Spleen cells were diluted to 3×10^6/ml in RPMI-1640 with 2 mM L-glutamine, 80 ìg/ml gentamycin and 20% inactivated fetal calf serum. 0.5 ìg/ml Concanavalin A (Con A, Sigma, St. Louis, Mo.) was used to stimulate thymic cell proliferation. For spleen cell proliferation, 0.5 ìg/ml Con A, 10 ìg/ml lipopolysaccharide (Sigma, St. Louis, Mo.), and 50 ìg/ml tuberculin purified protein derivative (PPD) were utilized. The assay was carried out in 96-well plates and cell cultures were incubated for 72 hours, or 96 hours if tuberculin was used, at 37° C. in humidified 5% CO2, then pulsed with 5 ìl Ci/ml ^3H-thymidine overnight (approximately 16 h) and harvested on filters using a semi-automated harvester (Titertek™, Flow Laboratories, Norway). Filters were dried and proliferation calculated by ^3H-thymidine incorporation by counting samples in a liquid scintillation counter (LKB 1217 Racketa, Wallace, Sweden). Data was expressed in impulses per minute.

M. bovis 8 = assay type: in vivo, mice
IL-4 and IFN-γ = assay: INF-γ and IL-4 concentrations in blood serum; assay type: in vivo, mice
tuberculosis = assay: SCV-07 in patients with destructive lung tuberculosis, 20 treated versus 15 control (Example 3); assay type: in vivo, human
Procedure: Patients with destructive lung tuberculosis, untreated previously or after inadequate antituberculosis therapy were treated. All patients received antituberculosis therapy consisting of intravenous isoniazid and four to five other drugs and the condition of each patient was examined daily. Major diagnostic criteria included physical examination, chest X-ray, sputum bacterioscopy and culture, broncho alveolar lavage examination. Also included were blood counts performed in all patients prior to SCV-07 therapy and then once per week. Blood biochemical tests including blood fibrinogen, β-lipoproteins, urea, creatinine, C-reactive protein levels, activity of alanine and asparagine transaminases were performed once per month and more frequently if needed. Sputum cultures were taken prior to therapy and one and three months after SCV-07 therapy, and serologic assays including indirect hemaglutination tests.
Bilateral lung injury was found in 11 patients. […] In all cases, the pathological process was destructive. […] Immature cavities were diagnosed in 3 cases. Multiple cavities, X-ray markers and exudative inflammation predominated in all patients.
Females slightly predominated the experimental group (55%). Patients ranged in age from 20 to 40 years of age. All patients had symptoms of toxemia, including 4 patients with severe symptoms.
Immunological studies included counting the percentage of peripheral blood lymphocyte subsets such as CD3+, CD4+, CD8+, CD20+, CD25+ and CD95+ using monoclonal antibodies. The CD4/CD8 index was calculated as well. Elevation of CD3+ and CD4+ cell levels were apparent in 7 out of 14 patients immediately after SCV-07 therapy.
Phytohemagglutinin (PHA) and purified protein derivate (PPD)-induced lymphocytes blasttransformation were also investigated.

peritoneal macrophages = assay: Phagocytosis and killing of Saccharomyces cerevisiae by peritoneal macrophages of treated infected mice; assay type: in vivo
Procedure: In order to study phagocytosis, peritoneal macrophages were plated at a concentration of 10^6 cells per Petri dish and media including 10^7 Saccharomyces cerevisiae cells, opsonized by mice serum was added. Results were evaluated using the Mann-Whitney test. Phagocytic activity was calculated after determination of percentage of macrophages involved in phagocytes. The phagocytic index was determined by calculating the average number of yeast phagocytosed per one cell. Killing activity was resolved by the number of yeast digested by macrophages after 1.5 h of incubation. Finally, the killing index was determined as follows: [formula]

thymic cells = assay: Thymic cell proliferation (3H-thymidine) from treated infected mice; assay type: in vivo
Procedure: Mice thymuses were collected aseptically, homogenized, suspended in RPMI-1640 medium and filtered through two layers of sterile gauze. Cell suspensions were washed twice in RPMI-1640 with 2 mM L-glutamine and […] gentamycin, then counted using a Goriaev hemocytometer.
as §1

[1] = 24 days after end of therapy, Group 7 (0.1 ìg/kg ip) versus Group 3 (isoniazid control)
[2] = after 10 days, Groups 4, 5, 6 and 7

SMILES: N[C@H](CCC(=O)N[C@@H](Cc1c[nH]c2ccccc12)C(=O)O)C(=O)O [SCV-07, γ-D-glutamyl-L-tryptophan]
- spleen cell proliferative response with LPS (spleen cells; after 24 days, Group 6 (1 ìg/kg, 10 injections ip)): did not differ from uninfected mice
- spleen cell proliferative response with Con A (spleen cells; after 24 days, Groups 6 and 7 (1 ìg/kg, 10 injections ip and 0.1 ìg/kg ip)): did not differ from uninfected mice
- spleen cell proliferative response to tuberculin (spleen cells; later than 4 days of therapy, Group 6 (1 ìg/kg ip, 10 injections)): significantly higher than the control
- M. bovis growth in spleen culture (M. bovis 8; 5 daily injections of 0.01 ìg/kg): decreases
- differences between the control and experimental groups (M. bovis 8; 10 days and 17 days after termination of treatment, groups other than Group 7): lacked significance
- growth of M bovis cultured from spleens (M. bovis 8; [1]): 200±0 CFU
- lung weight index (M. bovis 8; [1]): 1.38±0.06
- spleen weight index (M. bovis 8; [1]): 1.59±0.25
- increase in body weight (M. bovis 8; 24 days after end of therapy, Group 7 (SCV-07 0.1 ìg/kg ip, 5 injections, with isoniazid) versus Group 3 (isoniazid control)): 30.8%
- M. bovis growth in spleen cultures, significant decrease (M. bovis 8; Group 5 (1 ìg/kg ip, 5 injections), 24 days after treatment): this trend did not occur
- M. bovis growth in spleen cultures (M. bovis 8; Group 6 (1 ìg/kg ip, 10 injections), 24 days after treatment, 275±14.1 CFU in the control): 190±21.5 CFU
- lung damage index, difference to isoniazid control (Group 3) (M. bovis 8; Group 7 (0.1 ìg/kg ip), 4 days after therapy): Significant differences
- lung damage index (M. bovis 8; Group 7 (0.1 ìg/kg ip), 10 days and 17 days after termination of treatment): considerably differed from the control
- lung damage index, difference to untreated controls (Group 2) (M. bovis 8; Groups 5, 7, 8 and 9 (1, 0.1, 0.01 ìg/kg ip and 1 ìg/kg po), 4 days after therapy): significant differences
- lung damage index (M. bovis 8; all doses, 4 days after the end of 5 days of therapy (Day 28 of infection)): decreased
- IFN-γ levels in blood serum (IL-4 and IFN-γ; [2]): increased
- IL-4 levels in blood serum (IL-4 and IFN-γ; [2]): decreased
- concentration of IFN-γ in blood serum (IL-4 and IFN-γ; after 17 days, Groups 4, 5, 6, 7 and 8 (significantly in group 7 and 8)): increased
- IL-4 in blood serum (IL-4 and IFN-γ; after 17 days, Groups 5, 6 and 7): significantly decreased
- IL-2 production after stimulation with the mitogens PHA and PPD (tuberculosis; SCV-07 treated patients): greatly increased
- Cavity closure, patients (tuberculosis; after 3 months of observation, 13.3% in the control group): 25%
- Negative sputum culture tests, patients (tuberculosis; after 3 months, 33.3% in the control group): 65%
- Negative sputum culture tests, patients (tuberculosis; after a month of observation, 13.3% in the control group): 30%
- Serum bilirubin, creatinine, urea, alanine and asparagine transaminase (tuberculosis; during SCV-07 therapy): stabilized
- Hematological signs of tuberculosis activity including white blood cell counts and ESR (tuberculosis; experimental group): mostly diminished
- body temperature (tuberculosis; experimental group): decreased in all cases
- Moist rates resolved (tuberculosis; experimental group (20 patients)): 16 patients
- T-cell blasttransformation responses (PHA, PPD) (tuberculosis; experimental group compared with control group): markedly increased
- chest X-ray and tomogram (tuberculosis; following two months of SCV-07 therapy): resolution of the infiltrate-like shadow
- CD4+/CD8+ ratio (tuberculosis; immediately after SCV-07 therapy): increased
- Serum biochemical inflammation markers such as fibrinogen, β-lipoprotein, CRP (tuberculosis; in one month): decreased
- Elevation of CD3+ and CD4+ cell levels, patients (tuberculosis; out of 14 patients, immediately after SCV-07 therapy): 7 patients
- Toxemia symptoms substantially resolved (tuberculosis; within a month, experimental group (20 patients), with antituberculosis therapy): half of the patients
- macrophage killing (peritoneal macrophages; 24 days after treatment, Groups 6 and 7 (1.0 ìg/kg, 10 injections and 0.1 ìg/kg ip)): significantly improved
- phagocytic activity (peritoneal macrophages; after 4 days, Group 7 (SCV-07 0.1 ìg/kg ip) compared to Group 3 (isoniazid control), p≦0.05, 64.2% in uninfected mice): 38.8%
- phagocytic index (peritoneal macrophages; after 4 days, SCV-07 treatment): normalized
- killing (peritoneal macrophages; after 4 days, SCV-07 versus control, p≦0.05): 244.4
- killing and the killing index (peritoneal macrophages; after 17 days, Group 6 (1.0 ìg/kg ip, 10 injections)): significantly increased
- phagocytic activity (peritoneal macrophages; after 17 days, Group 6 (1.0 ìg/kg ip, 10 injections) versus Group 3 (isoniazid control)): 60.4%
- phagocytic index (peritoneal macrophages; after 17 days, Group 6 (1.0 ìg/kg ip, 10 injections) versus Group 3, p=0.05): 6.88 U
- killing (peritoneal macrophages; ten days after therapy, Group 5 (1 ìg/kg, ip) compared to the control): significantly increased
- ingestion and killing (peritoneal macrophages; ten days after therapy, Groups 8 and 9 (0.01 ìg/kg ip and 1 ìg/kg po)): tendency toward decreased
- basal thymic cell proliferation (thymic cells; SCV-07 treated (Groups 4 to 9) versus control (Groups 1 to 3)): No significant differences
- Con A stimulated thymic cell proliferation (thymic cells; after 4 days, Group 7 (0.1 ìg/kg ip) in comparison to Group 3 (isoniazid control)): significantly higher
- Con A stimulated thymic cell proliferation response (thymic cells; day 17, Groups 7 and 8 (0.1 and 0.01 ìg/kg ip)): essentially the same response as uninfected mice
- Con A stimulated thymic cell proliferation (thymic cells; day 24, Groups 6, 7 and 8 (1 ìg/kg 10 injections ip, 0.1 and 0.01 ìg/kg ip)): higher numbers than the isoniazid control
